Reference: US9422333B2, “HCV protease inhibitors and uses thereof” (Celgene Avilomics Research, Inc., priority 2008, dated 2016)

Molecular target: HCV NS3/4A wild type (wt) (Hepatitis C virus genotype 1b (isolate BK) (HCV), UniProt P26663)
Experiment: Mass spectrometric analysis (MALDI-TOF) of intact protease incubated with test compound
Format: binding
Details: 10-fold excess of compound
Procedure: Mass spectrometric analysis of HCV wild type or HCV variant C159S in the presence of test compound is performed. 100 pmols of HCV wild type (Bioenza CA) is incubated with test compound for 1 hr and 3 hrs at 10-fold access of test compound to protein. 1 ul aliquots of the samples (total volume of 4.24 ul) are diluted with 10 ul of 0.1% TFA prior to micro C4 ZipTipping directly onto the MALDI target using Sinapinic acid as the desorption matrix (10 mg/mL in 0.1% TFA:Acetonitrile 50:50). Analyses are performed on a Shimadzu Biotech Axima TOF^2 (Shimadzu Instruments) matrix-assisted-laser desorption/ionization Time-of-Flight (MALDI-TOF) mass spectrometer. The same procedure is carried out on 100 pmols of HCV C159S mutant of HCV protease for 3 hrs at 10-fold excess of test compound to protein.
(§1) 2 ul aliquots of the samples were diluted with 10 ul of 0.1% TFA prior to micro C4 ZipTipping directly onto the MALDI target using Sinapinic acid as the desorption matrix (10 mg/ml in 0.1% TFA:Acetonitrile 50:50). For intact protein mass measurement the instrument was set in linear mode using a pulsed extraction setting of 24,500 and apomyoglobin as the standard to calibrate the instrument.
as §1, with “[…]” for “C4”, “20:80).” for “50:50).”

Row | Structure (SMILES) | covalent modification of protein (reaction with compound, mass spectrometry) (3 hr incubation) | mass increase of new protein species versus protein with no compound (3 hr incubation) | covalent modification of protein (reaction with compound, mass spectrometry) (1 hr incubation)
1 | C=CC(=O)NC[C@H](NC(=O)[C@@H](NC(=O)c1cnccn1)C1CCCCC1)C(=O)N1C[C@@H]2CCC[C@@H]2[C@H]1C(=O)N[C@@H](CCC)C(=O)C(=O)NC1CC1 [Compound I-11, (1S,3aR,6aS)-2-((S)-3-acrylamido-2-((S)-2-cyclohexyl-2-(pyrazine-2-carboxamido)acetamido)propanoyl)-N—((S)-1-(cyclopropylamino)-1,2-dioxohexan-3-yl)octahydrocyclopenta[c]pyrrole-1-carboxamide] | reacted significantly to produce a new species | approximately 703 Da | 
2 | CCC[C@H](NC(=O)[C@@H]1[C@H]2CCC[C@H]2CN1C(=O)[C@@H](NC(=O)[C@@H](NC(=O)c1cnccn1)C1CCCCC1)C(C)(C)C)C(=O)C(=O)NC1CC1 [telaprevir, reference compound] |  |  | no reaction
